Results on five compounds are retold here after patent US5686426A, “Dicarboxymethylated glycolipid derivatives as cell adhesion inhibitors” (Bristol-Myers Squibb Company, priority 1994, dated 1997).

The subject of test [1] is reverse passive Arthus reaction in rats. The test is described as follows: Reverse Passive Arthus Reaction in Rats (RPA). Conditions: rat, single IV dose 3 mg, 4 hours. The class given is in vivo, Male Sprague Dawley rats. The source says:
The reverse passive Arthus reaction in rats is a modification of the method by Mulligan et al., as described in J. Clin. Invest., (1991) 88: 1396-1406. This is an experimental model in which the interaction of antigen-antibody complexes and complement leads to a severe vasculitis that is associated with edema, induration, erythema and hemorrhage. The interaction between the antigen-antibody complexes and complement leads to a localized influx of neutrophils. These neutrophils release a variety of mediators that are associated with tissue damage and vascular permeability. The localized inflammatory reaction is measured using different techniques i.e., vascular permeability and neutrophil influx which is evaluated both biochemically and microscopically.
Male Sprague Dawley specific pathogen-free rats with jugular vein cannulae (280-320 g, Hill Top Labs, Pa.) are used in these studies. Animals are acclimated for at least 1 day and individually housed in stainless steel cages. The dorsal region of the rats is closely clipped 2 days prior to the experiments and divided into 4 sites on each side of the midline. Prior to all injections the rats are sedated with 0.4 ml per 300 gm rat of ketamine/rompun [1000 mg (10 ml) of ketamine HCL is mixed with 40 mg (2.0 ml) Rompun] administered IP and or inhalation anesthesia with metafane (methoxyflurane).
Bovin Serum Albumin (BSA) and rabbit polyclonal IgG rich in anti-BSA are purchased from Sigma Chemical Co. (St. Louis, Mo.). Radiolabelled ^125 I-BSA (spAct 1-5 μCi/μg) is purchased from Dupont NEN (Boston, Mass.).
Each rat is administered intradermal (ID) injection of (0.4 mg, 0.6 mg and 0.8 mg) anti-BSA in a volume of 100 μl per injection in normal saline. The ID injections are randomized near the mid dorsal region on both sides of the back bone. Immediately after the ID injections of the anti-BSA, the rats are administered intravenous (IV) injections of BSA (10 mg in 1.0 ml) in normal saline containing ^125 I labeled BSA (1 μCi/ml BSA or 5.0 μCi/kg body wt) for quantification of dermal vascular injury. Anti-inflammatory agents such as inhibitors of adhesion molecules of the present invention are administered IV at a single dose of 3 mg immediately after BSA. Four (4) hours after the IV injection of BSA, the rats are anesthetized with metafane and 2 to 3 ml of blood is withdrawn via the cannula into an anticoagulant containing (EDTA or Heparin) tube and plasma separated and saved for neutrophil and albumin quantitation. The rats are killed and the skin surrounding the injection site (15 mm diameter) is punched out and weighed. The skin samples and a fixed volume of plasma (0.1 to 1.0 ml) is analyzed in a gamma-counter for ^125 I content. Skin samples from the contralateral side are processed and analyzed for myeloperoxidase activity (MPO) as a measure of neutrophil accumulation. As needed, samples are also processed for histological evaluation of the reacted sites.
Vascular Permeability (VP)
The calculation of the plasma protein exudation into skin is made by determining the radioactivity in the tissue and relating this to the level of radioactive albumin in the blood at the time of sacrifice. […] [formula]
Percent inhibition of the test compound at 3 mg was determined as follows: [formula] Myeloperoxidase (MPO)
MPO is located in the azurophil granules of polymorphonuclear leukocytes (PMN). Because of its abundance in these cells (5% dry weight), this enzyme is used as a marker for tissue neutrophil content. For tissue MPO content, the method of Bradley, et al., was used as described in J. Invest. Dermatol. (1982) 78: 206-209. Biopsies from each treatment group were placed in plastic tubes (15×100 mm) containing 10 ml of 0.5% hexadecyltrimethylammonium bromide (HTAB)in 0.05M potassium phosphate buffer pH 6.0. The tissue was then homogenized with a Brinkmann Polytron homogenizer (10s). […]

The subject of test [2] is HL-60 cells / activated platelets (P-selectin). The test is described as follows: HL-60 Platelet Cell Adhesion Assay. The class given is cell-based. The conditions noted are these: HL-60 cell adhesion to thrombin-activated human platelets. The protocol:
HL-60 cells, obtained from American Type Culture Collection, were cultured in RPMI 1640 medium (GIBCO) supplemented with 20% fetal calf serum (Sigma) and 50 μg/ml gentamicin (GIBCO). Cells in log phase growth were harvested, washed and resuspended in Tyrodes buffer containing 5 mM HEPES and 0.2% bovine serum albumin and were fixed with 1% buffered formalin.
Blood from normal human donors was anticoagulated with citrate, layered over 1-Step Platelets (Accurate Chemical Co.), and centrifuged at 350 g for 20 minutes at room temperature. The platelet band was collected, diluted in 2 volumes of Tyrode's Buffer with 5 mM HEPES, 10 mM EDTA, and 0.2% BSA (pH 7.4) (THEB) and centrifuged at 600 g for 10 minutes. The platelet pellet was resuspended in THEB and incubated at room temperature for 1 hour. Calcein-acetoxy methylester (Calcein-Am, Molecular Probes) was added to the platelets at a final concentration of 10 μM and incubated for 10 minutes at 37° C. to label the platelets. Without washing, the platelets were counted on a Coulter counter model ZM, and the concentration was adjusted to 1×10^7 /ml. The platelets were activated with 2 U/ml of human thrombin for 10 minutes in Tyrode's containing 2 mM CaCl2, 5 mM HEPES, and 0.2% BSA (pH 7.4) (THB) at 37° and immediately fixed with 1% buffered formalin for 1 to 2 hours at room temperature. A small aliquot of labeled platelets was removed before activation and designated as non-activated.
Both platelets and HL-60 were washed in a ≥5 fold excess volume of Hanks Balanced Salt Solution (HBSS), resuspended in THB and counted. Cell concentrations were adjusted to 2×10^7 /ml for platelets and 4×10^6 /ml for HL-60, this ratio determined to be optimum for platelet: HL-60 cell adhesion. Compounds were incubated with 50 μl of platelets for 30 minutes at room temperature before addition of 50 μl of HL-60. This ratio of 5:1 platelets to HL-60 was incubated for 30 minutes at room temperature before addition of 0.2 ml of THB to increase the volume so the samples could be analyzed on a FACScan cytometer (Becton Dickinson). Non-activated platelets, and activated platelets with 10 mM EDTA were included as controls. Data were collected within a region set for the forward scatter channel corresponding to HL-60 size events.
The percent HL-60 cells which contained bound platelets was determined for each test condition. The inhibition of binding was determined by comparison to standards which were treated with vehicle alone (representing 0% inhibition) and standards whose specific binding had been blocked by the use of EDTA (representing 100% inhibition), by the following formula: [formula] where x=HL-60 cells containing bound platelets in the presence of the compound;
b=HL-60 cells containing bound platelets in the presence of EDTA;
a=HL-60 cells containing bound platelets in presence of compound vehicle;
z=% inhibition of platelet: HL-60 cell adhesion

Test [3] concerns the target T1, P-selectin (Homo sapiens, UniProt P16109).
T1 sequence (P16109 42-830): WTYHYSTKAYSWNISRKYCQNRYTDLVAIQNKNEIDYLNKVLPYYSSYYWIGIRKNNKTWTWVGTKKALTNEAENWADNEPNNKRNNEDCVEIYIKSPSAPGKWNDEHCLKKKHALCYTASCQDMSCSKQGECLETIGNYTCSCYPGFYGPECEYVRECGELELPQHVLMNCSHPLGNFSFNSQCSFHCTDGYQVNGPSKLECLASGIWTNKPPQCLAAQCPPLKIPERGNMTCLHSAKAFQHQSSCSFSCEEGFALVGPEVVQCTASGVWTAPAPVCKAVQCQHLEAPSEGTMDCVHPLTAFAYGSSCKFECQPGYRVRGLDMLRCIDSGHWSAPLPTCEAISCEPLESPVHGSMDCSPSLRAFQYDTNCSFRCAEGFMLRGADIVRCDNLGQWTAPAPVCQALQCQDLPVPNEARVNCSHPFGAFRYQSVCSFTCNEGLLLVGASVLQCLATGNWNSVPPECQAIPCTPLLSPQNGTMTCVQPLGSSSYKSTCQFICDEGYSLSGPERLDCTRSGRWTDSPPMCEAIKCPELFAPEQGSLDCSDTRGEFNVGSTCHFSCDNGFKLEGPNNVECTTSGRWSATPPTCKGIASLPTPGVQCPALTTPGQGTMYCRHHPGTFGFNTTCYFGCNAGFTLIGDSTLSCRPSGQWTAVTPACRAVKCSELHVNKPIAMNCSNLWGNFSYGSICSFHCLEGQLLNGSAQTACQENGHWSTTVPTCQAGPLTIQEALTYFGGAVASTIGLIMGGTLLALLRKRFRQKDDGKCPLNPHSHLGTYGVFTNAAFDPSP
Conditions: literature; cited from earlier work.

Test [4] addresses T1, P-selectin. Conditions: anionic polymers; literature; cited from earlier work.

`CCCCCCCCCCCCC/C=C/[C@@H](OC(=O)c1ccccc1)[C@H](CO[C@H]1O[C@H](COC(=O)c2ccccc2)[C@H](OCC(=O)O)[C@H](OCC(=O)O)[C@H]1OC(=O)c1ccccc1)NC(=O)CCCCCCCCCCCCCCC` [Example 10, (2S,3R,4E)-2-Hexadecanoylamino-3-benzoyloxy-1-[3,4-di-O-carboxy-methyl-2,6-di-O-benzoyl-α-D-galactopyranosyloxy]-4-octadecene]: the “RPA VP % Inhib. (vascular permeability)” value in test [1] (125I-BSA plasma extravasation into skin) amounted to 54%. Besides, the “RPA MPO % Inhib. (myeloperoxidase, neutrophil accumulation)” value in test [1] (skin MPO activity) is 65%. In test [2], the IC50 was greater than 100 µM.
For `CC(=O)N[C@H]1C(O)O[C@H](CO)[C@@H](O[C@@H]2O[C@H](CO)[C@H](O)[C@H](O)[C@H]2O)[C@@H]1O[C@@H]1O[C@@H](C)[C@@H](O)[C@@H](O)[C@@H]1O` (stereo partly shown) [Le^x], at P-selectin [3], the “binding to P-selectin (in words)” value was “shown to bind”.
Consider dextran sulfate, for which the “inhibition of P-selectin mediated adhesion (in words)” value at P-selectin [4] was “shown to inhibit P-selectin mediated adhesion”.
Turning to fucoidan, on P-selectin [4], the “inhibition of P-selectin mediated adhesion (in words)” value is “shown to inhibit P-selectin mediated adhesion”.
Turning to heparin, the “inhibition of P-selectin mediated adhesion (in words)” value at P-selectin [4] was “shown to inhibit P-selectin mediated adhesion”.
